The text below walks through data of publication PMC11842024, “Reversible male contraception by targeted inhibition of serine/threonine kinase 33” (Science (New York, N.Y.), 2024).

What all share (format): in vivo
Assay [1] has as its system male mice. In words: Fertility analysis and reversibility in male mice. Here is the method:
On the basis of molecular modeling, mouse and human STK33 have identical ATP binding pockets (fig. S19), consistent with evolutionary conservation and function of STK33. To determine the consequences of STK33 inhibition in vivo, we evaluated reproductive outcomes in male mice dosed with CDD-2807. […] In protocol 1, adult male mice (n = 6 per cohort) were treated with vehicle control or CDD-2807 at 15 mg kg^−1 intraperitoneally twice per day for 21 days, subsequently housed continuously with fertile female mice of reproductive age (two per male), and then evaluated at day 45 for effects of CDD-2807 on the male reproductive tract (after the first litter was born) or continued to be housed with the females until day 66 after the completion of the 60-day breeding data collection (fig. S21A). In protocol 2, adult male mice (n = 7 per cohort) were treated with vehicle control or CDD-2807 at 50 mg kg^−1 once per day for 21 days, subsequently housed continuously with females (two per male), and then evaluated at later time points (fig. S21B). […] In month 2, litters were born to all females housed with the six control males (2.0 ± 0 litters per male; 7.25 ± 0.17 pups per female per litter) (Fig. 4A). By contrast, no litters were produced by females housed with males who received CDD-2807 (Fig. 4A). For protocol 2 mice, all seven control males sired litters from both females in month 1 (7.29 ± 0.18 pups per litter per female), whereas only one female became pregnant and delivered a single pup from the seven CDD-2807–treated males (50 mg kg^−1 day^−1) (0.07 ± 0.07 pups per litter per female) (Fig. 4B). […] Thus, CDD-2807 delivery in both protocols induced a contraceptive effect. […]
Fertility analysis. Sexually mature male C57/129 hybrid mice were randomly assigned to either the vehicle control treatment or the CDD-2807 treatment groups. Drug formulation and injections were as follows: for protocol 1 mice receiving the 15 mg/kg CDD-2807 twice daily dosing had the compound dissolved in DMSO, which was injected at 5% of the final volume in 10% Captisol and water. For protocol 2 mice receiving a single daily dose of 50 mg/kg CDD-2807, the compound was dissolved in DMSO and injected at 5% in 20% Captisol and water. All injections were administered as i.p. injections, and for the 15 mg/kg CDD-2807 and DMSO control mice, the injections were delivered in the morning and the evening. Mice in the 50 mg/kg dosing received i.p. injections once in the evening. Weights were measured daily prior to drug administration and monitored throughout the entirety of the injection period. Injections were given for 21 days prior to introduction of female mice. During the fertility assessment, males were housed continuously with two C57/129 sexually mature females for 45 days to generate approximately two months of fertility data. During the fertility assessment, the total number of pups born per litter sired by each male were counted and the total number of litters and pups sired per male over the entire trial was calculated. Mean pup number and SEM were used to determine differences in average number of […]
fig. S21. Protocol timelines of mouse breeding and reversibility study. (A) Protocol 1 represents the 15 mg/kg twice per day drug dosing of CDD-2807. Samples were collected at euthanasia on day 45 from half of the male mice, allow ing for the completion of the 30-day breeding data to be collected and to give the male mice sufficient time with their female counterparts to initiate the day 60 breeding data. After completion of the entire 60-day breeding data, protocol 1 mice were then “rested” for 21 days prior to measuring their recovery period where they were housed with females to determine fertility. ( B) Protocol 2 represents the 50 mg/kg per day drug dosing of CDD-2807. Samples were collected at euthanasia on day 63 from half of the male mice; this allowed for the entire completion of the initial breeding data prior to collections. […]

Assay [2] relates to male mice. The assay can be described thus: Computer assisted sperm analysis (CASA) of cauda epididymis sperm. The source says: To further understand the cause of the contraceptive effect of CDD-2807, we analyzed sperm from the cauda epididymis of each mouse using computer assisted sperm analysis (CASA). Although sperm counts were lower in the controls in protocol 1 mice versus CDD-2807–treated mice (fig. S23C), sperm motility (fig. S23D), progressive sperm (fig. S23E), and hyperactivated sperm (fig. S23F) were reduced in the CDD-2807–treated mice. In protocol 2, sperm counts (Fig. 4D), sperm motility (Fig. 4E), progressive sperm (Fig. 4F), and hyperactivated sperm (Fig. 4G) were reduced in the CDD-2807-treated mice versus control mice. […] Thus, low dose (CDD-2807 at 15 mg kg^−1 twice per day for 45 days) or reduced duration (CDD-2807 at 50 mg kg^−1 day^−1 for 7 days) appears to cause a functional defect in motility, whereas high dose (CDD-2807 at 50 mg kg^−1 day^−1 for 63 days) causes both functional and morphologic defects, consistent with the Stk33 knockout and likely a direct role of STK33 in phosphorylation of fibrous sheath proteins A-kinase anchoring protein 3 (AKAP3) and AKAP4 and/or other STK33 targets ([48]).

The test system of assay [3] is male mice. In words: Scanning electron microscopy (SEM) of sperm morphology. Particulars: protocol 2 at 63 days, n = 3. The text has this: Fig. 4. CDD-2807 treatment induces a reversible contraceptive effect. […] Fertility was restored to levels equal to those of controls after halting CDD-2807 treatment for 3 weeks in protocol 1; in protocol 2, fertility was restored an average of 53.5 ± 5.1 days after completion of CDD-2807 treatment compared to the controls (3.5 ± 0.2 days). (C) There are no observed morphological differences in testes from control and CDD-2807 treatment in mice from protocol 2 at 63 days; testis size of CDD-2807–treated mice in protocol 2 (87.13 ± 5.87 mg) was not statistically changed versus control males (111.10 ± 6.50 mg). […] (H) For SEM quantification, a minimum of 100 sperm per group were counted and determined to be either normal or abnormal (having head or tail defects). Counts were totaled and then turned into a percentage of normal versus abnormal sperm per group. By SEM analysis, 94.7 ± 2.7% of the sperm in the CDD-2807–treated mice (n = 3) in protocol 2 had morphologic defects at 63 days, including head and tail defects as shown, compared to only 10.9 ± 2.7% abnormal sperm for the controls (n = 3). Scale bars: 0.5 cm (C), […] (H). **P < 0.01, ***P < 0.001, ****P < 0.0001.

[4] abbreviates: 50 mg/kg/day for 7 days (Protocol 3).
[5] abbreviates: protocol 2 at 63 days, vs control.

`O=C(c1ccc2[nH]nc(C#Cc3ccccc3-c3ccccc3)c2c1)N1CC2(CCCNC2)C1` [CDD-2807] had a litters per male in assay [1] (protocol 1 (15 mg/kg i.p. twice per day), month 1) of 1.0 ± 0.37 litters per male. Moreover, in assay [1] (protocol 1, month 1), the “pups per female per litter” value was 0.92 ± 0.34 pups per female per litter and the “treated males that sired litters” value was “four of the six”. Moreover, the “litters produced by females housed with treated males” value in assay [1] (protocol 1, month 2) is “no litters”. For the same compound, in assay [1] (protocol 1, treatment halted at day 63, 21 days rest, first month of breeding), the “pups per litter per female after recovery” value was 7.67 ± 0.61 pups per litter per female. In addition, the “pups per litter per female” value in assay [1] (protocol 2 (50 mg/kg/day i.p.), month 1) is on record as 0.07 ± 0.07 pups per litter per female. For the same compound, the “time to sire first litters after treatment (fertility resumption)” value in assay [1] (protocol 2, after completion of treatment) was determined as 53.5 ± 5.1 days. In addition, the litters sired entry in assay [1] (protocol 2, month 2) is on record as “did not sire any litters”. In assay [2] (setting [4]), the progressive sperm result is “statistically significant reductions”, the sperm counts result is “did not alter”, the sperm hyperactivation entry is listed as “statistically significant reductions” and the sperm motility result was “statistically significant reductions”. In assay [2] (protocol 1, day 45, vs control), the hyperactivated sperm result was “reduced”, the progressive sperm entry is reported as “reduced” and the sperm motility entry is recorded as “reduced”. Further, in assay [2] (setting [5]), the hyperactivated sperm result is on record as “significant decrease”, the progressive sperm entry is “significant decrease”, the sperm counts result is “significant decrease” and the sperm motility result was “significant decrease”. Also, in assay [3], the “sperm with morphologic defects (abnormal sperm) by SEM” value is on record as 94.7 ± 2.7%.
